Data published in patent publication US20030207933A1, “Compositions and methods for increasing the sensitivity of apoptosis-resistant tumor cells to inducers of apoptosis” (priority 2002, published 2003).

How the values were obtained:
[1] = system: overexpression of Bcl-2; experiment: Comparison with compounds reported to counteract Bcl-2; type: cell-based; conditions: at 2.5 [M; data not shown
Excerpt: W-188 was then compared to other compounds previously reported to counteract Bcl-2 (Marchetti, P., et al., J. Immunol., 1996, 157:4830; Hirsch, T., et al., Exp. Cell Res., 1998, 241:426).

[2] = system: HL-60-Bcl-2 xenograft; experiment: HL-60-Bcl-2 xenograft growth in nude mice; type: in vivo; conditions: single dose
Procedure: Groups of five nude mice were injected s.c. with 5×10^6 HL-60-Bcl-2 cells, and tumors allowed to grow to a size of 7-10 mm. Tumors were then exposed to a single dose of γ-radiation, a single dose of W-188 or vehicle control, or a single dose of both γ-radiation and W-188. Tumor growth was monitored every other day, and when the tumor volume increased four fold, the animals were sacrificed.

[3] = system: HS-treated U937 cells; experiment: DNA fragmentation in heat shock-treated U937 cells; type: cell-based
Procedure: U937 cells received either no heat shock (HS) treatment or HS treatment at 42° C. for 30 min followed by recovery for 3 hr. The cells were then treated with etoposide or TNF with and without W-188, which alone was nontoxic. After 3 hr, DNA fragmentation was measured by release of ^3H-labeled DNA. As expected, U937 cells exposed to HS treatment were completely resistant to etoposide or TNF-induced DNA fragmentation (FIG. 7).

[4] = system: mice; experiment: Histopathological analysis of internal organs after xenograft treatment; type: in vivo, nude mice; conditions: radiation + W-188 200 mg/kg; thirty days after treatment
Procedure: Thirty days after treatment, three mice that were given radiation+W-188 200 mg/kg (the optimal treatment in this experiment) were sacrificed and internal organs removed and processed for histopathological analysis by a board-certified pathologist at a commercial lab.

[5] = system: LY-ar cells; experiment: 10 day colony formation assay, LY-ar; type: cell-based, murine; conditions: not shown
Excerpt: LY-ar was highly resistant to apoptosis induced by y-radiation. […] The apparent selective effects of W-188 may be due to the preferential intracellular accumulation of porphyrin compounds in transformed cells as opposed to normal cells reported previously (Bugelski, P. J., et al., Cancer Res., 1981, 41:4606).

[6] = system: HL-60 cells; experiment: Subcellular distribution of W-188 in HL-60 cells (absorbance at 380 nm); type: in vitro ADME, human
Procedure: (§1) A method to measure the subcellular localization of this compound was developed by the inventors of the present invention. Because of its distinctive absorbance spectrum, W-188 can be detected in cell and tissue extracts by measuring absorbance at 380 nm, and quantitated relative to a standard curve constructed with known amounts of W-188. HL-60 and PW cells containing vector control or overexpressing Bcl-2 were incubated with W-188 followed by cell lysis and isolation of nuclei, mitochondria, and cytotol by differential centrifugation.
(§2) Furthermore, it can be seen that nuclei and mitochondria from cells overexpressing Bcl-2 accumulated higher levels of W-188 than the vector control cells. These findings are consistent with the hypothesis that W-188 may counteract the protective effects of Bcl-2 mediated at both the mitochondria as well as the nucleus.

[7] = system: Wehi-Hsp70 fibrosarcoma cells; experiment: 20 h DNA fragmentation assay in Wehi cells overexpressing Hsp70; type: cell-based, murine; conditions: etoposide + 20 μM W-188, FIG. 8
Procedure: This finding was confirmed using the Wehi murine fibrosarcoma cell line that is transfected with and overexpresses Hsp70, as described previously (Jaattela, M., et al., EMBO J. 1998, 17:6124). Wehi transfected with Hsp70 or vector control were cultured with etoposide ±20 μM W-188 in a 20 h DNA fragmentation assay.

[8] = system: PW cells; experiment: Subcellular distribution of W-188 in PW cells (absorbance at 380 nm); type: in vitro ADME, human
Procedure: as §1, §2

[9] = system: RIF-1 fibrosarcoma; experiment: RIF-1 fibrosarcoma tumor growth in vivo; design: species or system mice; conditions: for Effect on tumor growth: five i.p. injections
Excerpt: The present study tested in the ability of W-188 to synergize with Dox and inhibit tumor growth in vivo. The RIF-1 fibrosarcoma model was used because this model has been well-characterized, and naturally expresses high Bcl-2 levels and has a consistent growth pattern (Nahabedian, M. Y., et al., J. Natl. Can. Inst., 1988, 80:739; Chang, M-J., et al., Cancer Res., 1994, 54:5380; Srivastana, M., et al., J. Biol. Chem., 2001, 276:15481).
Groups of five mice each were inoculated s.c. with RIF-1 cells. The tumors were allowed to grow for 12 days to a size of 0.5 cm diameter, which was designated day 0. The mice were then given five i.p. injections every other day with vehicle, Dox 2.5 mg/kg, Dox 5.0 mg/kg, W-188 100 mg/kg, and Dox 5.0 mg/kg+W-188 100 mg/kg. The mice were weighed and the tumor size measured every day.
The protocol was similar to that described for the W-188 experiment in Example 8, except that in this study, mice with established tumors received only three injections of W-143 or Dox every other day starting on day 0.

[10] = system: Nuclei from HL-60 Bcl-2 cells; experiment: AP24-induced DNA fragmentation in nuclei isolated from pretreated cells; type: cell-based, human; conditions: for % DNA Fragmentation: cells incubated with W-188 5 μg/ml 4 hr, 20 hr assay
Excerpt: Nuclei isolated from HL-60-Bcl-2 cells were resistant to AP24-induced DNA fragmentation, as expected (Wright, S. C., et al., Cancer Res., 1998, 58:5570).

[11] = system: HL-60 Bcl-2 cells; experiment: DNA fragmentation (release of 3H-labeled DNA fragments) in Bcl-2-transfected HL-60 cells; type: cell-based, human

CCC1=C(C)C(/C=C2\NC(=O)C(C)=C2CC)=NC/1=C\c1[nH]c(/C=C2\NC(=O)C(C)=C2CC)c(C)c1CC [W-188, etiobiliverdin-IV]
Reversal of the effect of overexpression of Bcl-2 [1]: completely reversed the effect of overexpression of Bcl-2 | Effect on tumor growth ([2]; W-188 200 mg/kg alone): no significant effect | Effect on tumor growth ([2]; W-188 400 mg/kg alone, p=0.005): significantly inhibited tumor growth | Effect on tumor growth ([2]; γ-radiation + W-188 200 mg/kg, p=0.006): even greater inhibition of tumor growth compared to radiation alone | Etoposide or TNF-induced DNA fragmentation after HS treatment ([3]; HS 42° C. 30 min, recovery 3 hr, 3 hr assay, FIG. 7): levels of etoposide or TNF-induced DNA fragmentation comparable to that seen in normal U937 cells | Toxicity of compound alone ([3]; W-188 alone): nontoxic | Histopathology of heart, lung, liver, spleen, kidney, stomach, intestine [4]: All tissues examined were found to be normal | Sensitization to cell death mediated by etoposide and chlorambucil [5]: sensitized HL-60-Bcl-2 and LY-ar cells to cell death mediated by etoposide and chlorambucil | W-188 (μg/mg protein), Cytosol ([6]; HL-60 Bcl-2): 0.25 μg/mg protein | W-188 (μg/mg protein), Mitochondria ([6]; HL-60 Bcl-2): 10.0 μg/mg protein | W-188 (μg/mg protein), Nuclei ([6]; HL-60 Bcl-2): 186 μg/mg protein | W-188 (μg/mg protein), Cytosol ([6]; HL-60 neo): 0 μg/mg protein | W-188 (μg/mg protein), Mitochondria ([6]; HL-60 neo): 3.3 μg/mg protein | W-188 (μg/mg protein), Nuclei ([6]; HL-60 neo): 100 μg/mg protein | Etoposide-induced DNA fragmentation [7]: underwent DNA fragmentation at levels comparable to that observed with the Wehi-vector control | W-188 (μg/mg protein), Cytosol ([8]; PW Bcl-2): 0 μg/mg protein | W-188 (μg/mg protein), Mitochondria ([8]; PW Bcl-2): 4.5 μg/mg protein | W-188 (μg/mg protein), Nuclei ([8]; PW Bcl-2): 166 μg/mg protein | W-188 (μg/mg protein), Cytosol ([8]; PW neo): 0 μg/mg protein | W-188 (μg/mg protein), Mitochondria ([8]; PW neo): 2.5 μg/mg protein | W-188 (μg/mg protein), Nuclei ([8]; PW neo): 133 μg/mg protein | Effect on tumor growth ([9]; W-188 100 mg/kg + Dox 5.0 mg/kg): synergistically inhibited tumor growth | Tumor size relative to vehicle control ([9]; W-188 100 mg/kg + Dox 5.0 mg/kg, day 12, p=0.0005): only half the size of the vehicle control | Effect on tumor growth ([9]; W-188 100 mg/kg alone, data not shown): no effect on tumor growth | % DNA Fragmentation ([10]; AP24 dilution 1:10): 44 ± 4.8% | % DNA Fragmentation ([10]; AP24 dilution 1:20): 19 ± 1.0% | Sensitivity of isolated nuclei to AP24-induced DNA fragmentation (in words) ([10]; pretreatment of HL-60-Bcl-2 cells): restored the sensitivity of the isolated nuclei to AP24-induced DNA fragmentation | % DNA Fragmentation ([11]; Exp 1, etoposide 5 μM + compound 5 μM): 40% | % DNA Fragmentation ([11]; Exp 1, etoposide 5 μM + compound 10 μM): 76% | % DNA Fragmentation ([11]; Exp 2, etoposide 10 μM + compound 10 μM): 62% | % DNA Fragmentation ([11]; Exp 3, etoposide 5 μM + compound 10 μM): 92% | % DNA Fragmentation ([11]; Exp 4, etoposide 5 μM + compound 10 μM): 59% | % DNA Fragmentation ([11]; Exp 5, etoposide 10 μM + compound 10 μM): 55% | Sensitization to DNA fragmentation induced by TNF, etoposide and UV light ([11]; TNF 5 ng/ml, etoposide 20 μM, UV 0.08 J/cm^2, 5 h, FIG. 4A): dose-dependently sensitized HL-60 Bcl-2 cells to DNA fragmentation induced by all three agents | Optimal doses giving DNA fragmentation comparable with HL-60 neo cells ([11]; TNF, etoposide or UV, 5 h): 25 to 50 µg/mL | Toxicity of compound alone ([11]; W-188 alone, no apoptosis inducer): nontoxic | Bcl-2-sensitizing activity (in words) ([11]; tumor cells overexpressing Bcl-2, Table 4): most potent
